SMILES strings stand for the structures.

The source of these data is a melting point compilation (Tetko et al.; mined from patent text by program, amines drawn as free bases though some values may be those of a salt).

As for `CNc1cccc(-c2csc(NC(=N)N)n2)c1`, the melting point was 198 to 200 °C.

`COc1ccc2c(c1)CCn1ncnc1C2=C1CCN(C)CC1` had a melting point of 166 °C. In turn, `O=C1CCNCCNC(=O)CCNCCN1` registered a melting point of 198 to 199 °C. The value for `COc1ccccc1NC(=O)Nc1nc(Oc2ccc3ccccc3c2)nc(N(CCC(=O)O)Cc2ccc(C(F)(F)F)cc2C(F)(F)F)n1` was 192 °C; that for `CCCCCCCCCCc1ccc(C(=O)NOCc2ccccc2)cc1` was 82 to 83 °C. In the case of `OCC1OC(n2cnc3c(NCCCCC(c4ccccc4)c4ccccc4)ncnc32)C(O)C1O` (stereo not drawn), the melting point was in the range of 78 to 82 °C. The value for `O=C1c2c(O)ccc(O)c2-c2nn(CCCNCCO)c3ccc(NCCNCCO)c1c23` was 159 to 163 °C; that for `COc1cc2c(cc1OC)CN(c1nc(N)nc(Cl)n1)CC2` was 196 to 197 °C. Take `O=C(O)c1ncn2c1[C@@H]1CCN1C(=O)c1c-2ccc(F)c1Cl`: the melting point was in the range of 225 to 226 °C. The value for `O=C(N[C@H](Cc1ccccc1)C(=O)O)OCc1ccc(COc2ccccc2)cc1` was 116 to 117 °C. Next, `CC(c1oc2ccccc2c(=O)c1-c1cccc(F)c1)n1nc(-c2cc(O)cc(F)c2)c2c(N)ncnc21` (stereo not drawn): 271 to 273 °C; `O=C(O)c1ccc2c(COc3cccnc3)csc2c1`: 248 to 250 °C. Next, `Cc1cccc(C(=O)O)c1-c1ccc(C(F)(F)F)cc1`: 202 to 203 °C; `O=C(O)C1=Cc2c(ccc(Cl)c2-c2ccccc2)OC1C(F)(F)F` (stereo not drawn): 229 to 231 °C; `CCCCN(CCCCCCCCSc1nc(-c2ccccc2)c(-c2ccccc2)[nH]1)C(=O)Nc1ccc(F)cc1F`: 114 to 115 °C.

`OCc1ccc(-c2ccccc2-c2nnn(C(c3ccccc3)(c3ccccc3)c3ccccc3)n2)cc1`: the melting point is 168 to 170 °C. The value for `CCOC(=O)c1cc(=O)c2[nH]ncc2[nH]1` was 287 to 292 °C. Next, `Nc1cccc(OCc2nc3ccccc3s2)c1`: 117 to 120 °C; `CCC1CC(=O)C2Oc3c(OC)ccc4c3C23CCN(C#N)C(C4)C13` (stereo not drawn): 212 to 217 °C. Next, `C=CCOc1cc(C(=O)OC)cc(OCC=C)c1NC(C)=O`: 135 to 137 °C; `O=C1N[C@H]2OC=N[C@@]12c1ccccc1`: 159 to 160 °C. `Cc1cc(C)c(Nc2nc(C)ccc2S(=O)(=O)c2ccc(C(=O)c3ccccc3)cc2)c(C)c1` came in with a melting point of 222 to 225 °C. The value for `CC(C)(C)c1cc(C(=O)c2ccc(C#N)cc2)cc(C(C)(C)C)c1O` was 166 to 168 °C; that for `COC1(c2cc(F)cc(S(=O)(=O)c3ccc4c(c3)OCCC4=NO)c2)CCOCC1` was 209 to 210 °C; that for `COc1ccc(S(=O)(=O)Nc2ccccc2-c2ccc(F)cc2C(C)O)cc1` (stereo not drawn) was 137 to 138 °C. For `COc1cc(OC)nc(Sc2c([N+](=O)[O-])c(C)nn2C)n1`, the melting point lay in the range of 124 to 125 °C. Next, `CCSc1ncc(Oc2ccc(Cl)c(Cl)c2)cc1C#N`: 80 to 81 °C; `O=C(O)c1c(Cl)nc(-c2ccccc2)c2ccccc12`: 208 °C; `O=S(=O)(c1ccc(Cl)c2ccccc12)N1CC2CCC(CC2)C1`: 134 to 137 °C.

`CC(C)CC(Cn1cc(Sc2ccccc2)c2ccccc21)N(O)C(N)=O` (stereo not drawn) showed a melting point of 57 °C. Next, `Cc1ccc(S(=O)(=O)OCCc2cc3ccccc3o2)cc1`: 195 to 197 °C; `CN1CC2CCCCC2C1c1noc(=O)[nH]1` (stereo not drawn): 102 to 104 °C; `CCC(CC)(CC(=O)Nc1cccc(/C=C/c2cccc(COCCCCc3ccc(C)cc3)n2)c1)C(=O)O`: 114 to 116 °C. Next, `CCCCc1nc2cscc2n1Cc1ccc(-c2ccccc2C(=O)O)cc1`: 168 °C. Next, `Cc1cc2c(cc1Cl)CCN2C(=O)Nc1cccnc1`: 217 to 218 °C. Compound `CCOC(=O)c1c(C2CC2)nc(CC)n1Cc1ccc2oc(-c3ccccc3-c3nnn[nH]3)c(Br)c2c1` returned a melting point of 132 to 137 °C. The value for `Cn1nc(-c2ccc3c(c2)CCN(C2CCC2)CC3)ccc1=O` was 287 to 288 °C; that for `CC(C)c1ccc(-c2ccc(F)cc2)n1C(C)CC1CC(O)CC(=O)O1` (stereo not drawn) was 167 to 169 °C; that for `Oc1c(CN2CCCC2)cc(Nc2ccnc3cc(C(F)(F)F)ccc23)cc1CN1CCCC1` was 56 to 58 °C. Next, `c1ccc(OCCSCc2nnc(-c3ccc(OCCCN4CCOCC4)cc3)o2)cc1`: 65 °C.

`CC(C)NC(=S)NS(=O)(=O)c1ccc(S(C)(=O)=O)cc1N` gave a melting point of 151 to 153 °C. Next, `CC(=O)NC1C(Cl)OC(COC(C)=O)C(OC(C)=O)C1OC(C)=O` (stereo not drawn): 143 °C; `COc1ccc(C2Sc3c(ccc4ccccc34)NC(=O)C2O)cc1` (stereo not drawn): 232 to 234 °C; `CC(C)C1CC(O)OC(C(C)C2CC(=O)C3C4C(O)C(O)C5C(O)C(O)CCC5(C)C4CCC23C)C1` (stereo not drawn): 239 to 241 °C.

The compound `CC(C)(C)OC(=O)NNCc1ccc(-c2ccccc2)cc1` registered a melting point of 84 to 85 °C. The value for `CCN(CC)CCOCCC1CCCCN1C(=O)N1c2ccccc2C(=O)Nc2cccnc21` (stereo not drawn) was 134 to 136 °C; that for `Nc1cc(C(=O)O)cc(S(N)(=O)=O)c1Oc1cccc(C(F)(F)F)c1` was 270 °C; that for `Cc1ccccc1OCC(O)CNC(C)COc1cccnc1C(N)=O` (stereo not drawn) was 145 to 161 °C. In turn, `O=C1CCCc2ccc(OCCCCN3CCN(c4cccc5c4OCC5)CC3)nc2N1` gave a melting point of 176 to 177 °C. The value for `COc1cccc(C(=C/C=C/C(=O)Oc2ccc([N+](=O)[O-])cc2)c2cccc(OC)c2)c1` was 95 to 97 °C. Next, `CCC[C@@H]1COC(=O)N1c1nc(-c2ccc(Br)cc2)cs1`: 114 to 116 °C; `CCC1CC(NC(C)=O)=NN1c1cccc(Cl)n1` (stereo not drawn): 170 to 171 °C; `CC(=O)Nc1ccc(S(=O)(=O)Nc2onc(C)c2Br)cc1`: 208 to 210 °C. `CCCCCC(O)(CC#N)c1ccc(OC)cc1` (stereo not drawn) showed a melting point of 45 to 47 °C. Compound `OC[C@@H]1O[C@H]1C#CC#CC#Cc1ccccc1` (relative stereo) returned a melting point of 68 to 70 °C. In turn, `NC(=O)N1Cc2c(-c3ccc(F)cc3)ncn2-c2ccccc21` displayed a melting point of 222 to 223 °C. Compound `COc1cc(OC)c2ccccc2c1O` returned a melting point of 87 to 88 °C. Next, `COC1(C)CCc2cc(OC(=O)c3ccccc3)c(C)c(C)c2O1` (stereo not drawn): 102 °C. With `CN1Cc2c(-c3noc(CCl)n3)ncn2-c2cccc(C(F)(F)F)c2C1=O`, the melting point lay within 180 to 184 °C. Compound `O=C(O)c1ccc(O)c(NC(=O)C(CS)Cc2ccccc2)c1` (stereo not drawn) came in with a melting point of 226 to 227 °C. Take `O=S(=O)(Nc1cccc(OCc2ncc3ccccc3n2)c1)C(F)(F)F`: the melting point lay in the range of 140 to 150 °C. The value for `CC(=C(c1ccc(F)cc1)c1ccc(F)cc1)P(c1ccccc1)c1ccccc1` was 88 to 90 °C; that for `Cc1oc(-c2ccc(F)cc2)cc1CO` was 80 to 82 °C.

For orientation: melting point means the temperature of the solid-liquid transition.
